In publication PMC11876692, “Synthesis, physicochemical characterization and biological activity of novel pyrrole flavones” (Scientific Reports, 2025):

How the values were obtained:
5637 cells = assay: MTT assay, cytotoxicity towards 5637 bladder cancer cells; assay type: cell-based, human; conditions: for IC50: Homo sapiens, MTT; for cell viability: preliminary experiment (10 µM implied)
Experimental: (§1) Human urinary bladder grade II carcinoma cell line (5637), human urinary bladder carcinoma (HT-1376), and human lung fibroblasts (MRC-5) were purchased from ATCC (Manassas, VA, USA). The 5637 cells were grown in RPMI, HT-1376 cells were cultured in EMEM, and MRC-5 in DMEM. All media were supplemented with 10% (v/v) FBS, 2 mM L-glutamine, 100 U/mL penicillin, and […] streptomycin (1% v/v). The cells were cultured at 37 °C in a humidified atmosphere with 5% CO2.
(§2) Tested compounds were dissolved in DMSO at a concentration of 10 mM for preliminary study. […] Stock solutions were stored in the dark at -20 °C.
(§3) For the preliminary experiments, the 5637 cells were used. The compounds were prepared in the cell culture medium at a concentration of 0.1 µM, 1 µM, and 10 µM. DMSO was used as a control. […] Cells were treated with compounds for 24, 48, and 72 h. Cells were washed twice with DPBS, and 170 µL of MTT solution at a final concentration of 0.59 mg/mL in culture medium was added. Cells were incubated with MTT solution for 1.5 h at standard cell culture conditions. After incubation, MTT was removed, and formazan crystals were dissolved with 200 µL DMSO. The absorbance was measured at a wavelength of 570 nm using a plate reader (Biotek Instruments, Elx-800, Winooski, VT, USA).
(§4) Subsequently, cells were treated with compound 4a at a concentration of 0.5 µM, 1 µM, 2 µM, 4 µM, 6 µM, and 8 µM and compound 5b at a concentration range of 2 µM, 4 µM, 6 µM, 8 µM,10 µM, and 15 µM for 24 h and 48 h. […] The MTT assay was performed as described above.
(§5) The IC50 values were calculated using the GraphPad Prism 8 software (GraphPad Software, Inc., La Jolla, CA, USA), and cell viability was expressed as a percentage of the control. At least three biological replicates were performed for each compound.

Aliivibrio fischeri = conditions: 10 µM
Experimental: All the synthesized derivatives were subjected to the Microtox test. […] The acute toxicity of the tested compounds was measured using the Microtox test. For the measurements, the 81.9% screening test procedure was applied using the Microtox [MUT] apparatus along with the Microtox Omni 4.2 software supplied by the manufacturer (Modern Water plc). Briefly, the bioluminescence of bacterial suspension was measured before the addition of the solution of the tested compound and after 5 and 15 min upon exposure. […] As the control, 2% sodium chloride solution was used (Modern Water Microtox Diluent).

[1] = MTT assay, cytotoxicity towards non-cancerous MRC-5 fibroblasts; assay type: cell-based, human; conditions: human, MRC-5 lung fibroblasts, MRC-5 cells, 24 h, read-out: cell viability
Experimental: as §1, §2, §3, §4, §5

MRC-5 cells = assay: as above; assay type: cell-based, human; conditions: for IC50: Homo sapiens, MTT; for effect on viability of MRC-5 cells: all tested concentrations (2-15 µM), 24 and 48 h
Experimental: as §1, §2, §3, §4, §5

HT-1376 cells = assay: MTT assay, cytotoxicity towards HT-1376 bladder cancer cells; assay type: cell-based, human
Experimental: as §1, §2, §3, §4, §5

[2] = Homo sapiens, HT-1376, 24 h, 24 h
[3] = Homo sapiens, HT-1376, 48 h, 48 h

decrease in bioluminescence (Aliivibrio fischeri) [%]	Structure (SMILES)	effect on viability of cancer cells (5637 cells; 10 µM)	viability at 24 h, 6 µM ([1]; 6 µM) [%]	viability at 24 h, 8 µM ([1]; 8 µM) [%]	IC50 (MRC-5 cells; MRC5, 24 h) [µM]	IC50 (MRC-5 cells; MRC5, 48 h) [µM]	IC50 (5637 cells; 24 h) [µM]	IC50 (5637 cells; 48 h) [µM]	IC50 (HT-1376 cells; 24 h) [µM]	IC50 (HT-1376 cells; [2]) [µM]	IC50 (HT-1376 cells; [3]) [µM]	cell viability (5637 cells; 48 h of incubation) [%]	cell viability (5637 cells; 72 h of incubation) [%]	effect on viability of MRC-5 cells (MRC-5 cells)	effect on viability of MRC-5 cells (MRC-5 cells; listed as flavone derivative with 7-(2-methyl-5-phenylpyrrol-1-yl))
80	Cc1ccc(C)n1-c1ccc2oc(-c3ccccc3)cc(=O)c2c1 [4a, 6-(2,5-Dimethylpyrrol-1-yl)-2-phenylchromen-4-one]	did not affect the viability	–	–	–	–	–	–	–	–	–	–	–	–	–
–	Cc1ccc(-c2ccccc2)n1-c1ccc2oc(-c3ccccc3)cc(=O)c2c1 [4b, 6-(2-Methyl-5-phenylpyrrol-1-yl)-2-phenylchromen-4-one]	–	57	52	> 8	5.21 ± 0.1	2.97 ± 0.17	2.12 ± 0.19	5.89 ± 1.1	~5	5.37 ± 1.44	–	–	–	–
–	Cc1ccc(C)n1-c1ccc2c(=O)cc(-c3ccccc3)oc2c1 [5a, 7-(2,5-Dimethylpyrrol-1-yl)-2-phenylchromen-4-one]	–	–	–	–	–	–	–	–	–	–	75.8	48	–	–
–	Cc1ccc(-c2ccccc2)n1-c1ccc2c(=O)cc(-c3ccccc3)oc2c1 [5b, 7-(2-Methyl-5-phenylpyrrol-1-yl)-2-phenylchromen-4-one]	–	–	–	> 15	> 15	7.39 ± 2.02	4.61 ± 0.1	13.5 ± 1.41	~13	11.7 ± 1.74	–	–	did not decrease cell viability	without any effect
